Tests used:
[1] = molecular target: Sodium-dependent noradrenaline transporter (Homo sapiens) (UniProt P23975); test: Inhibition of norepinephrine receptor at 10 uM
[2] = molecular target: T1, Muscarinic acetylcholine receptor M1 (Homo sapiens) (UniProt P11229); test: Inhibition of M1 muscarinic receptor at 10 uM
T1 sequence (whole entry): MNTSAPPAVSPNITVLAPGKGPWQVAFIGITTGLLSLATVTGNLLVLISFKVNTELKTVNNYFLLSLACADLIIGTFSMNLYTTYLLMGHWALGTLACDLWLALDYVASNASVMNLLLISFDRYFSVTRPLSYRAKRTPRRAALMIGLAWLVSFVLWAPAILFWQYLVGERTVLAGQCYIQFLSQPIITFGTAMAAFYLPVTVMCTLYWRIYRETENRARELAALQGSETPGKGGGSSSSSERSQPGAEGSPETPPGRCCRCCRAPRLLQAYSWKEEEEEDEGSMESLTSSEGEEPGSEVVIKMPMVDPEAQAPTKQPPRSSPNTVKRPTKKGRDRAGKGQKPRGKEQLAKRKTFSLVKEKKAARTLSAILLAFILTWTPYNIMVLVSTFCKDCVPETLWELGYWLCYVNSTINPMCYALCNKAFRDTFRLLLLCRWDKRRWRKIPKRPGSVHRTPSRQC

[3] = molecular target: 5-hydroxytryptamine receptor 1E (Homo sapiens) (UniProt P28566); test: Inhibition of 5HT1E receptor at 10 uM
[4] = molecular target: Beta-1 adrenergic receptor (Homo sapiens) (UniProt P08588); test: Inhibition of beta-1 adrenergic receptor at 10 uM
[5] = molecular target: Histamine H3 receptor (Homo sapiens) (UniProt Q9Y5N1); test: Inhibition of H3 receptor at 10 uM
[6] = molecular target: D(1B) dopamine receptor (Homo sapiens) (UniProt P21918); test: Inhibition of D5 dopamine receptor at 10 uM
[7] = molecular target: Histamine H4 receptor (Homo sapiens) (UniProt Q9H3N8); test: Inhibition of H4 receptor at 10 uM
[8] = molecular target: Beta-2 adrenergic receptor (Homo sapiens) (UniProt P07550); test: Inhibition of beta2 adrenergic receptor at 10 uM
[9] = molecular target: T2, Alpha-2C adrenergic receptor (Homo sapiens) (UniProt P18825); test: Inhibition of Alpha-2C adrenergic receptor at 10 uM
T2 sequence (whole entry): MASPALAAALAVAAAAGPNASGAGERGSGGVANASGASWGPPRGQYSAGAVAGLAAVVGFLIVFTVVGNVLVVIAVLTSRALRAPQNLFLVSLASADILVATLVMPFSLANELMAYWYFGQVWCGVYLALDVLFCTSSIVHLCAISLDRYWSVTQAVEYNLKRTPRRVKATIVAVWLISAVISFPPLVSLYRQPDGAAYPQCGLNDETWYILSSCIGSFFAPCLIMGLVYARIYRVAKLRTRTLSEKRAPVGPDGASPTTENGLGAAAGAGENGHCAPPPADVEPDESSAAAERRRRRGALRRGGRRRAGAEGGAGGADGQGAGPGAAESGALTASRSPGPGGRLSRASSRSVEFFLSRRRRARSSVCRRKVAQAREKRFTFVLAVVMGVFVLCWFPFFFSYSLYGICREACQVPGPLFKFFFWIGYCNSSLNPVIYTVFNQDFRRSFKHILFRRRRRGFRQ

[10] = molecular target: T3, Muscarinic acetylcholine receptor M4 (Homo sapiens) (UniProt P08173); test: Inhibition of M4 muscarinic receptor at 10 uM
T3 sequence (whole entry): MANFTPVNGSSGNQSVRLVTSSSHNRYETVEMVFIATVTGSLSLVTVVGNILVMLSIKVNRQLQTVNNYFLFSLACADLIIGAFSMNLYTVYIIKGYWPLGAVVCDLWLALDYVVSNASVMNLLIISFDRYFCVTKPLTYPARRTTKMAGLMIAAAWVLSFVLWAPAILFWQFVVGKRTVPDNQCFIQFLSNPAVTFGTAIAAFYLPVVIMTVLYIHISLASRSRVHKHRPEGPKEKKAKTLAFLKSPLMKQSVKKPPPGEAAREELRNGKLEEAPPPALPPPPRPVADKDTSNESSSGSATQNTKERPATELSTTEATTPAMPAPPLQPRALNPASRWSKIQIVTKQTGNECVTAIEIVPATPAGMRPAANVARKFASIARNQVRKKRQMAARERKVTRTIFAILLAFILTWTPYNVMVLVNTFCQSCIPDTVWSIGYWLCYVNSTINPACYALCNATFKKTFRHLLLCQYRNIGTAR

[11] = molecular target: T4, Alpha-1B adrenergic receptor (Homo sapiens) (UniProt P35368); test: Inhibition of Alpha-1B adrenergic receptor at 10 uM
T4 sequence (whole entry): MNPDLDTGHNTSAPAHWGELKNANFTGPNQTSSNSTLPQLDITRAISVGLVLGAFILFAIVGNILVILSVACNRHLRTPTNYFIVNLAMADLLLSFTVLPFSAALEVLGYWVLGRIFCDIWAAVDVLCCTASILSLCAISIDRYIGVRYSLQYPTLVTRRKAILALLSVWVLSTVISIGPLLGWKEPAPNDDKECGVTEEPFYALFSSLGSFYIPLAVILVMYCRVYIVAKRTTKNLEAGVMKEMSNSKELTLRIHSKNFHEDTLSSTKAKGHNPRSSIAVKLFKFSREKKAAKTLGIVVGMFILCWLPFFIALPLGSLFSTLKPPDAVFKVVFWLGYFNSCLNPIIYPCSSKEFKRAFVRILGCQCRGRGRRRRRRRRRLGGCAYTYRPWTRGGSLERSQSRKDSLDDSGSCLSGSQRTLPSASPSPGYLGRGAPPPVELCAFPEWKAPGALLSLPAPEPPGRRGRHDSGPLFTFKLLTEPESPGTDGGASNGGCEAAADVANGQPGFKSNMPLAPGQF

[12] = molecular target: T5, Muscarinic acetylcholine receptor M2 (Homo sapiens) (UniProt P08172); test: Inhibition of M2 muscarinic receptor at 10 uM
T5 sequence (whole entry): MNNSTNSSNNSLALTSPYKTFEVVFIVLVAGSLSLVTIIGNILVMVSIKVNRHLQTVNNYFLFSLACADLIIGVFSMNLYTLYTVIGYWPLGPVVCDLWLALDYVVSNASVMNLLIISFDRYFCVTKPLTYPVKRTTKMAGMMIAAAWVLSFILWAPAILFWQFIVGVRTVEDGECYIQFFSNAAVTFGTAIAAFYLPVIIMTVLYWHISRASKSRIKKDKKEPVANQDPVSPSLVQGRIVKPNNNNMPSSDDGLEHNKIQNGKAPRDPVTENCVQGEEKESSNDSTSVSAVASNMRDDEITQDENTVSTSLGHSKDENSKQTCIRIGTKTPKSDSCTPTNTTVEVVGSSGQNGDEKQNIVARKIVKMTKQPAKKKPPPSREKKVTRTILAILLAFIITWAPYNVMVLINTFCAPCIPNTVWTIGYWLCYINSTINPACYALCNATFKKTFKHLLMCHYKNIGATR

[13] = molecular target: 5-hydroxytryptamine receptor 1B (Homo sapiens, UniProt P28222); test: Inhibition of 5-HT1B receptor
[14] = molecular target: 5-hydroxytryptamine receptor 2B (Homo sapiens, UniProt P41595); test: Inhibition of 5-HT2B receptor at 10 uM
Chain of 5-hydroxytryptamine receptor 2B (P41595 whole entry): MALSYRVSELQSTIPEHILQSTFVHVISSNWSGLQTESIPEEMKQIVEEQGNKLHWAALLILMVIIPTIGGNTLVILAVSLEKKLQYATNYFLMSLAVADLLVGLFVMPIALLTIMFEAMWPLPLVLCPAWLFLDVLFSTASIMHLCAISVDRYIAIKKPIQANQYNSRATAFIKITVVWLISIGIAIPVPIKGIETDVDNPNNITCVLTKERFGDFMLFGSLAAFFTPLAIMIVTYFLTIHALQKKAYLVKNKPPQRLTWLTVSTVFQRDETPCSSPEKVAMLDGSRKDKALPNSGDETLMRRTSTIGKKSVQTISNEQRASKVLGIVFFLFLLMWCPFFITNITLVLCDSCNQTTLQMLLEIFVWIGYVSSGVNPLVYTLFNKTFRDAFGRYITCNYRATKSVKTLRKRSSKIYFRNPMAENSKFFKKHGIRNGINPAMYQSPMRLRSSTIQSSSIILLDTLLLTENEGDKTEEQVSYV

Chain of Beta-1 adrenergic receptor (Homo sapiens) (P08588 whole entry, looked up): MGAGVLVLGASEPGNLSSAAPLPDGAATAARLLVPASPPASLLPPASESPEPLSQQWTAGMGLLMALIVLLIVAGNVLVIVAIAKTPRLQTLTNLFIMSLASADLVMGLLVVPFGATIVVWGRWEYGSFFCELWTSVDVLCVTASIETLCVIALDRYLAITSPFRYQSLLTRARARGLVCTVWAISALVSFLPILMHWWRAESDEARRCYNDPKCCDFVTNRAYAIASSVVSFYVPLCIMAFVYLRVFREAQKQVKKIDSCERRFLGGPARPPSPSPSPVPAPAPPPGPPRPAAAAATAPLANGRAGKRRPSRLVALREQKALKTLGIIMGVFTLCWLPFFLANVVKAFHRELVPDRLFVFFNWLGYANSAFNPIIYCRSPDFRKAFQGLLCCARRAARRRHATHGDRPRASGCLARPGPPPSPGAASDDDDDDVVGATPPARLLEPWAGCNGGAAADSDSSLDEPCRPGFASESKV
Chain of Beta-2 adrenergic receptor (Homo sapiens) (P07550 whole entry, looked up): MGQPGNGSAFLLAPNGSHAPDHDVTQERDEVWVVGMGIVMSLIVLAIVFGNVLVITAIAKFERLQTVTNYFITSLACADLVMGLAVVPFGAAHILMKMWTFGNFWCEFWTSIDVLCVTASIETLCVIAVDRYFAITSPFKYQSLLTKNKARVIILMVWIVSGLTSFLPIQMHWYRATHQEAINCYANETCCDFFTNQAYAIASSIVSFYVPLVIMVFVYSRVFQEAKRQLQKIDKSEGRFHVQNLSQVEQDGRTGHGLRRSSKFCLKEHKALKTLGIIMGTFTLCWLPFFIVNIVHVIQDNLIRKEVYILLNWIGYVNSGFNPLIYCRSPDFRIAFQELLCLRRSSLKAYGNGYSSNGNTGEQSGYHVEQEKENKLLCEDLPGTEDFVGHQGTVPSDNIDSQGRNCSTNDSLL
Chain of 5-hydroxytryptamine receptor 1E (Homo sapiens) (P28566 whole entry): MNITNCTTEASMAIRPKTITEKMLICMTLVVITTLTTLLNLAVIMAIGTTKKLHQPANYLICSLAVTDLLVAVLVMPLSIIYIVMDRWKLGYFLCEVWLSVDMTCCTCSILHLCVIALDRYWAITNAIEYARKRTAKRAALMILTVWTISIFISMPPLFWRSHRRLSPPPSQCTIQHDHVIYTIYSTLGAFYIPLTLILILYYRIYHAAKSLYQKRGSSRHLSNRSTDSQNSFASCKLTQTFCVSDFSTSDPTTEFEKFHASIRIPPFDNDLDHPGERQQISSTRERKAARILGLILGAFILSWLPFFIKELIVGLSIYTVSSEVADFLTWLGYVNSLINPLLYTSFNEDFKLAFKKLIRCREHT
Chain of D(1B) dopamine receptor (Homo sapiens) (P21918 whole entry): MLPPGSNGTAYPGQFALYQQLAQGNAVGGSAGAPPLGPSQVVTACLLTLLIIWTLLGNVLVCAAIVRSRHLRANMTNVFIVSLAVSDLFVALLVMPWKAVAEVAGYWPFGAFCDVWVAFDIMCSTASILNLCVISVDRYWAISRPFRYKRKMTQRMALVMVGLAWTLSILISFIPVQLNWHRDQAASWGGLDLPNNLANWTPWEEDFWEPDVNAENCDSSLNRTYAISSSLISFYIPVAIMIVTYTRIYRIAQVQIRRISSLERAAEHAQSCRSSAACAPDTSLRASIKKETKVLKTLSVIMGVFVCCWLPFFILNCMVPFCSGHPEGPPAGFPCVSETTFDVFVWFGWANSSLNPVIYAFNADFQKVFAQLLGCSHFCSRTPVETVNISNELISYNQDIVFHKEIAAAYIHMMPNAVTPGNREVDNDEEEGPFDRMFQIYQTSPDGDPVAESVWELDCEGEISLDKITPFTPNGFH
Chain of 5-hydroxytryptamine receptor 1B (P28222 whole entry): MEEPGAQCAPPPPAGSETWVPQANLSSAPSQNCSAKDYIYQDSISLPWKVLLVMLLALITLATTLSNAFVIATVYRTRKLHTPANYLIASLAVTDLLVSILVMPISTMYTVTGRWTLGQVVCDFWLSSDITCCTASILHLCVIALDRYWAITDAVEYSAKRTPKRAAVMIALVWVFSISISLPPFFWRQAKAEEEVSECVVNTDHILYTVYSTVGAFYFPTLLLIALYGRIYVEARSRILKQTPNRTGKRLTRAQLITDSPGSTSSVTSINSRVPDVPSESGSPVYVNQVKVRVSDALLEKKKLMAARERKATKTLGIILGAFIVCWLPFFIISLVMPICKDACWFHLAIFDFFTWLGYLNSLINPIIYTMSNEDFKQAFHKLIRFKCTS
Chain of Sodium-dependent noradrenaline transporter (Homo sapiens) (P23975 whole entry): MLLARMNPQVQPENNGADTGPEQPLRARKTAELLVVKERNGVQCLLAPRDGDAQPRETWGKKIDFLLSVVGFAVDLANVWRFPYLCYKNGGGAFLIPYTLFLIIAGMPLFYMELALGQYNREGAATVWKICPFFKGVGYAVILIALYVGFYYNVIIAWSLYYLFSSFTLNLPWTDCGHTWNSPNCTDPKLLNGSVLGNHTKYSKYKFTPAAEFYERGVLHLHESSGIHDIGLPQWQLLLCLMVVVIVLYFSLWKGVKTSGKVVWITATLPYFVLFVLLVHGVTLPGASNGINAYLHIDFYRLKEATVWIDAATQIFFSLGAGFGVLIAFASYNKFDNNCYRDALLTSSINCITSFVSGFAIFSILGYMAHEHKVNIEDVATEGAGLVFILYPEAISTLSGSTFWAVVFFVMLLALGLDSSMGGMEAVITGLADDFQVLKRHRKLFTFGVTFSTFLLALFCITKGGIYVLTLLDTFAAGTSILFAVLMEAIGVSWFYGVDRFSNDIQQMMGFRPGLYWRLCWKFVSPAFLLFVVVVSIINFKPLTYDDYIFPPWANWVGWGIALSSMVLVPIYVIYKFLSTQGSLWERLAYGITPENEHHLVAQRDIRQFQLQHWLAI
Chain of Histamine H3 receptor (Homo sapiens) (Q9Y5N1 whole entry): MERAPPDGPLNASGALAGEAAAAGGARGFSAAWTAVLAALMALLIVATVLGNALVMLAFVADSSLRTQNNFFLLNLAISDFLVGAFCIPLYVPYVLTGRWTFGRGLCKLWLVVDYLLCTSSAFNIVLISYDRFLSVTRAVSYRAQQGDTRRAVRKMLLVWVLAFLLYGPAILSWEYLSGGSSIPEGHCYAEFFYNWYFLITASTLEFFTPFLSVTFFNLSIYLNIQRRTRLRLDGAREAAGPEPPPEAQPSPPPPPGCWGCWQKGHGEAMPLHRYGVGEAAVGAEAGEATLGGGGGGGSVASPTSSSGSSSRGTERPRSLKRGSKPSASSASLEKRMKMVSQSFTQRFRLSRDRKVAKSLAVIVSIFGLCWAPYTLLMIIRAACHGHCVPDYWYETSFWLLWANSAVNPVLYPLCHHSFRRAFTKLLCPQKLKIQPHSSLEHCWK

inhibition [1] | inhibition [2] | inhibition [3] | inhibition [4] | inhibition [5] | inhibition [6] | inhibition [7] | inhibition [8] | inhibition [9] | inhibition [10] | inhibition [11] | inhibition [12] | Ki [13] | inhibition [14] | Compound
< 50% | < 50% | < 50% | < 50% | < 50% | < 50% | < 50% | < 50% | < 50% | < 50% | < 50% | < 50% | 1.57 µM |  | CCCCOc1ccc(-c2nn3c(C)cc(C)nc3c2CC(=O)N(CC)CC)cc1
< 50% | < 50% | < 50% | < 50% | < 50% | < 50% | < 50% | < 50% | < 50% | < 50% |  | < 50% | > 10 µM | < 50% | CCCOc1ccc(-c2nn3c(C)cc(C)nc3c2CC(=O)N(CC)CC)cc1
< 50% | < 50% | < 50% | < 50% | < 50% | < 50% | < 50% | < 50% | < 50% | < 50% | < 50% | < 50% | > 10 µM | < 50% | CCOc1ccc(-c2nn3c(C)cc(C)nc3c2CC(=O)N(CC)CC)cc1
< 50% | < 50% | < 50% | < 50% | < 50% | < 50% | < 50% | < 50% | < 50% | < 50% | < 50% | < 50% | > 10 µM | < 50% | C#CCOc1ccc(-c2nn3c(C)cc(C)nc3c2CC(=O)N(CC)CC)cc1
